Test results published in US20240116985A1, “STAPLED PEPTIDES AND METHODS THEREOF” (priority 2020, published 2024).
In brackets after ≈: the same amount, converted by molar mass. Where two headings read alike, the source gives them in different places.

Legend:
CHI Log D procedure = assay type: physicochemical; settings: for CHI Log D: pH 7.4; for chromatographic logD: pH 7.4, CHI Log D
[1] = target: T1, full-length beta-Catenin (Uniprot ID P35222) (Homo sapiens, UniProt P35222); test: Fluorescence polarization IC50 (beta-catenin / 5FAM-TCF4 10-53 competition); assay type: binding
T1 construct: 10 nM full-length beta-Catenin (Uniprot ID P35222)
T1 sequence (P35222 1-781): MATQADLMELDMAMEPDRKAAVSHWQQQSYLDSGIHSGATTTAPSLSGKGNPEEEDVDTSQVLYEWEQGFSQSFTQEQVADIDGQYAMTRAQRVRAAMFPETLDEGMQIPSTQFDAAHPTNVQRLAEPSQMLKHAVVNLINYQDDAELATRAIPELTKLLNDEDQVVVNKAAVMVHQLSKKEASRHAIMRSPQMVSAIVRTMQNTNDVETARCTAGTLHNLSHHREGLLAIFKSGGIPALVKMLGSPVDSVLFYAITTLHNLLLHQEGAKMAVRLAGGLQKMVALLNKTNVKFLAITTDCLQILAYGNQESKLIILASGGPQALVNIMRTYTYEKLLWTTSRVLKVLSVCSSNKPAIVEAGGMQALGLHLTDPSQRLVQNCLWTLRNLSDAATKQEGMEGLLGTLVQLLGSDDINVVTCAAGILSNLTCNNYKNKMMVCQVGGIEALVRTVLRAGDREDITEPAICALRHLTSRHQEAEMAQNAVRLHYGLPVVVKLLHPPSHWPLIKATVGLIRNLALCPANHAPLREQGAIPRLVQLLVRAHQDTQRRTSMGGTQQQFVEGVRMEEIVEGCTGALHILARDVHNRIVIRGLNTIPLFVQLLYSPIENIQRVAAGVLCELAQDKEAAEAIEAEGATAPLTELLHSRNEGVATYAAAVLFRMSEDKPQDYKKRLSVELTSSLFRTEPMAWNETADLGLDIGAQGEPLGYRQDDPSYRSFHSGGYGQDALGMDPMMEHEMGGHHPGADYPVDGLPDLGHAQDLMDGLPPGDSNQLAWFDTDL

Solubility in PBS = assay type: physicochemical
Summary of the method: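 Steps: ultracentrifuge the peptide PBS solution, inject the supernatant on HPLC, inject a 50 μM peptide DMSO solution as reference, then calculate solubility as area ratio (PBS/DMSO) × 50 uM.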

Row | CHI Log D (CHI Log D procedure) | IC50 ([1]; read-out: FP EC50) | IC50 ([1]; read-out: beta-Catenin FP IC50) | Solubility (Solubility in PBS) | chromatographic logD (CHI Log D procedure) | Solubility (Solubility in PBS; Solubility (uM)) | SMILES
1 | 1.71 | 228 nM | 228 nM | 49 µM (≈ 94.1 µg/mL) | – | – | CC(=O)N1CCC[C@]12CC=CCCCC1(CCCC=CCOC(=O)N(C)CCC[C@@](C)(C(=O)N[C@@H](Cc3ccsc3)C(=O)N[C@@H](Cc3csc4ccccc34)C(=O)N[C@@H](CCC(N)=O)C(N)=O)NC(=O)[C@H](CC(N)=O)NC(=O)[C@H](Cc3ccccc3)NC(=O)[C@H](C)NC(=O)[C@H](C)NC(=O)[C@H](CC(=O)O)NC(=O)[C@H](CC(=O)O)NC1=O)NC(=O)[C@H](CC(C)(C)C)NC(=O)[C@H](CC(=O)O)NC2=O (stereo partly drawn) [I-765, Ac-PL3-Asp-Npg-B5-Asp-Asp-Ala-Ala-Phe-Asn-SeN-3Thi-BztA-Gln-NH2]
2 | 1.853 | 55 nM | 55 nM | 50 µM (≈ 96 µg/mL) | – | – | CC(=O)N1CCC[C@]12CC=CCCCC1(CCCC=CCOC(=O)N(C)CCC[C@@](C)(C(=O)N[C@@H](Cc3ccsc3)C(=O)N[C@@H](Cc3csc4ccccc34)C(=O)N[C@@H](CCC(N)=O)C(N)=O)NC(=O)[C@H](CC(N)=O)NC(=O)[C@H](Cc3ccccc3)NC(=O)[C@H](C)NC(=O)[C@H](C)NC(=O)[C@H](CC(=O)O)NC(=O)[C@H](CC(=O)O)NC1=O)NC(=O)[C@H](CC(C)(C)C)NC(=O)[C@H](CC(=O)O)NC2=O (stereo partly drawn) [I-766, Ac-PL3-Asp-Npg-B5-Asp-Asp-Ala-Ala-Phe-Asn-SeN-3Thi-BztA-Gln-NH2]
3 | 1.76 | 167 nM | 167 nM | 47 µM (≈ 90.7 µg/mL) | – | – | CC(=O)N1CCC[C@]12CC=CCCCC1(CCCC=CCOC(=O)N(C)CCC[C@@](C)(C(=O)N[C@@H](Cc3ccsc3)C(=O)N[C@@H](Cc3csc4ccccc34)C(=O)N[C@@H](Cc3c[nH]cn3)C(N)=O)NC(=O)[C@H](CC(N)=O)NC(=O)[C@H](Cc3ccccc3)NC(=O)[C@H](C)NC(=O)[C@H](C)NC(=O)[C@H](CC(=O)O)NC(=O)[C@H](CC(=O)O)NC1=O)NC(=O)[C@H](CC(C)(C)C)NC(=O)[C@H](CC(=O)O)NC2=O (stereo partly drawn) [I-773, Ac-PL3-Asp-Npg-B5-Asp-Asp-Ala-Ala-Phe-Asn-SeN-3Thi-BztA-His-NH2]
4 | 1.928 | 38 nM | 38 nM | 46 µM (≈ 88.7 µg/mL) | – | – | CC(=O)N1CCC[C@]12CC=CCCCC1(CCCC=CCOC(=O)N(C)CCC[C@@](C)(C(=O)N[C@@H](Cc3ccsc3)C(=O)N[C@@H](Cc3csc4ccccc34)C(=O)N[C@@H](Cc3c[nH]cn3)C(N)=O)NC(=O)[C@H](CC(N)=O)NC(=O)[C@H](Cc3ccccc3)NC(=O)[C@H](C)NC(=O)[C@H](C)NC(=O)[C@H](CC(=O)O)NC(=O)[C@H](CC(=O)O)NC1=O)NC(=O)[C@H](CC(C)(C)C)NC(=O)[C@H](CC(=O)O)NC2=O (stereo partly drawn) [I-774, Ac-PL3-Asp-Npg-B5-Asp-Asp-Ala-Ala-Phe-Asn-SeN-3Thi-BztA-His-NH2]
5 | 2.137 | – | 5 nM | 41 µM (≈ 79.6 µg/mL) | – | – | CC(=O)N1CCC[C@]12CC=CCCCC1(CCCC=CCCCCOC(=O)N3CC[C@@](C(=O)N[C@@H](Cc4ccsc4)C(=O)N[C@@H](Cc4csc5ccccc45)C(=O)N[C@@H](Cc4c[nH]cn4)C(N)=O)(C3)NC(=O)[C@H](CC(N)=O)NC(=O)[C@H](Cc3ccccc3)NC(=O)[C@H](C)NC(=O)[C@H](C)NC(=O)[C@H](CC(=O)O)NC(=O)[C@H](CC(=O)O)NC1=O)NC(=O)[C@H](CC(C)(C)C)NC(=O)[C@H](CC(=O)O)NC2=O (stereo partly drawn) [I-776, Ac-PL3-Asp-Npg-B5-Asp-Asp-Ala-Ala-Phe-Asn-PyrS3-3Thi-BztA-His-NH2]
6 | – | – | 5 nM | – | 2.12 | 44 µM (≈ 84.8 µg/mL) | CC(=O)N1CCC[C@]12CC=CCCCC1(CCCC=CCCCOC(=O)N3CC[C@@](C(=O)N[C@@H](Cc4cccs4)C(=O)N[C@@H](Cc4csc5ccccc45)C(=O)N[C@@H](Cc4c[nH]cn4)C(N)=O)(C3)NC(=O)[C@H](CC(N)=O)NC(=O)[C@H](Cc3ccccc3)NC(=O)[C@H](C)NC(=O)[C@H](C)NC(=O)[C@H](CC(=O)O)NC(=O)[C@H](CC(=O)O)NC1=O)NC(=O)[C@H](CC(C)(C)C)NC(=O)[C@H](CC(=O)O)NC2=O (stereo partly drawn) [I-779, Ac-PL3-Asp-Npg-B5-Asp-Asp-Ala-Ala-Phe-Asn-PyrS2-2Thi-BztA-His-NH2]
7 | – | – | 5 nM | 50 µM (≈ 95.9 µg/mL) | 2.08 | – | CC(=O)N1CCC[C@]12CC=CCCCC1(CCCC=CCCCOC(=O)N3CC[C@@](C(=O)N[C@@H](Cc4ccsc4)C(=O)N[C@@H](Cc4csc5ccccc45)C(=O)N[C@@H](CCC(N)=O)C(N)=O)(C3)NC(=O)[C@H](CC(N)=O)NC(=O)[C@H](Cc3ccccc3)NC(=O)[C@H](C)NC(=O)[C@H](C)NC(=O)[C@H](CC(=O)O)NC(=O)[C@H](CC(=O)O)NC1=O)NC(=O)[C@H](CCC(C)C)NC(=O)[C@H](CC(=O)O)NC2=O (stereo partly drawn) [I-787, Ac-PL3-Asp-hLeu-B5-Asp-Asp-Ala-Ala-Phe-Asn-PyrS2-3Thi-BztA-Gln-NH2]
8 | – | – | 310 nM | – | 2.05 | 48 µM (≈ 93.3 µg/mL) | CC(=O)N1CCC[C@]12CC=CCCCC1(CCCC=CCCCOC(=O)N3CC[C@@](C(=O)N[C@@H](Cc4ccsc4)C(=O)N[C@@H](Cc4c[nH]c5ccc(Cl)cc45)C(=O)N[C@@H](Cc4c[nH]cn4)C(N)=O)(C3)NC(=O)[C@H](CC(N)=O)NC(=O)[C@H](Cc3ccccc3)NC(=O)[C@H](C)NC(=O)[C@H](C)NC(=O)[C@H](CC(=O)O)NC(=O)[C@H](CC(=O)O)NC1=O)NC(=O)[C@H](CC(C)(C)C)NC(=O)[C@H](CC(=O)O)NC2=O (stereo partly drawn) [I-791, Ac-PL3-Asp-Npg-B5-Asp-Asp-Ala-Ala-Phe-Asn-PyrS2-3Thi-5C1W-His-NH2]
9 | – | – | 176 nM | 10 µM (≈ 19.7 µg/mL) | 2.39 | – | CC(=O)N1CCC[C@]12CC=CCCCC1(CCCC=CCCCOC(=O)N3CC[C@@](C(=O)N[C@@H](Cc4ccc5ccccc5c4)C(=O)N[C@@H](Cc4csc5ccccc45)C(=O)N[C@@H](Cc4c[nH]cn4)C(N)=O)(C3)NC(=O)[C@H](CC(N)=O)NC(=O)[C@H](Cc3ccccc3)NC(=O)[C@H](C)NC(=O)[C@H](C)NC(=O)[C@H](CC(=O)O)NC(=O)[C@H](CC(=O)O)NC1=O)NC(=O)[C@H](CC(C)(C)C)NC(=O)[C@H](CC(=O)O)NC2=O (stereo partly drawn) [I-795, Ac-PL3-Asp-Npg-B5-Asp-Asp-Ala-Ala-Phe-Asn-PyrS2-2NapA-BztA-His-NH2]
10 | – | 8140 nM | – | – | 2.45 | 35 µM (≈ 67.5 µg/mL) | CC(=O)N1CCC[C@]12CC=CCCCC1(CCCC=CCCCOC(=O)N3CC[C@@](C(=O)N[C@@H](Cc4ccsc4)C(=O)N[C@@H](Cc4csc5ccccc45)C(=O)N[C@@H](Cc4c[nH]cn4)C(N)=O)(C3)NC(=O)[C@H](CC(N)=O)NC(=O)[C@H](CC(=O)O)NC(=O)[C@H](C)NC(=O)[C@H](C)NC(=O)[C@H](CC(=O)O)NC(=O)[C@H](CC(=O)O)NC1=O)NC(=O)[C@H](CC(C)(C)C)NC(=O)[C@H](Cc1ccccc1)NC2=O (stereo partly drawn) [I-796, Ac-PL3-Phe-Npg-B5-Asp-Asp-Ala-Ala-Asp-Asn-PyrS2-3Thi-BztA-His-NH2]
11 | – | – | 33 nM | – | 1.9 | 47 µM (≈ 90.5 µg/mL) | CC(=O)N1CCC[C@]12CC=CCCCC1(CCCC=CCCCOC(=O)N3CC[C@@](C(=O)N[C@@H](Cc4ccsc4)C(=O)N[C@@H](Cc4csc5ccccc45)C(=O)N[C@@H](CCC(N)=O)C(N)=O)(C3)NC(=O)[C@H](CC(N)=O)NC(=O)[C@H](Cc3cscn3)NC(=O)[C@H](C)NC(=O)[C@H](C)NC(=O)[C@H](CC(=O)O)NC(=O)[C@H](CC(=O)O)NC1=O)NC(=O)[C@H](CC(C)(C)C)NC(=O)[C@H](CC(=O)O)NC2=O (stereo partly drawn) [I-812, Ac-PL3-Asp-Npg-B5-Asp-Asp-Ala-Ala-4Thz-Asn-PyrS2-3Thi-BztA-Gln-NH2]
